From patent US10138275B2, “Crystalline powder of cyclic peptide compound, preparation method for same, and uses thereof” (SHANGHAI TECHWELL BIOPHARMACEUTICAL CO., LTD, priority 2014, dated 2018)
Starred links: 1 amine or outer side, 2 acyl side, 3 side chain; linkers in the order of their positions; H or OH if unused. Positions of bridges follow the written chain, without caps; N, C: chain ends. Non-standard residues stand in square brackets, D forms with d. Residues, ends and D or L forms follow the SMILES beside them. *: point of attachment. hTyr(3S-OH,4S-OH,3'-OSO3H) = N[C@H](C(=O)O)[C@H](O)[C@@H](O)c1ccc(O)c(OS(=O)(=O)O)c1; Orn(4R-OH,5R-OH) = O=C([C@H](C[C@@H](O)[C@@H](O)N[*:3])N[*:1])[*:2]; Pro(3S-OH,4S-Me) = C[C@H]1CN[C@H](C(=O)O)[C@H]1O; X1 = CCCCCOc1ccc(-c2cc(-c3ccc(C(=O)*)cc3)no2)cc1; Gln(3R-OH) = NC(=O)C[C@@H](O)[C@H](N)C(=O)O; Hyp = O=C(O)[C@@H]1C[C@@H](O)CN1

Tests used:
Format in all cases: physicochemical
[1] = Particle size distribution (d10, d50) by Malvern particle size analyzer / laser diffraction; details: after drying
Method: […] Wherein, d10 and d50 are means known for indicating the particle size distribution. d50 refers to a value of particle size, and the size of 50 vol/% of particles is smaller than said value. D10 refers to a value of particle size, and the size of 10 vol/% of particles is smaller than said value. The preferred method for determining d10 and d50 is laser diffraction, d50 of the crystalline powder of the compound of formula I according to the present invention is determined as 10-100 um, and d10 is determined as 1-9 um. Preferably, d50 of the crystalline powder is 20-50 um, and d10 thereof is 1-5 um. Before solid-liquid separation, d50 of the crystalline powder of the compound of formula I is 10-100 um, and d10 thereof is 1-9 um. Preferably, d50 of the crystalline powder is 20-50 um, and d10 thereof is 3-6 um.

[2] = Bulk density of powder by cylinder measurement; details: after drying
Method: “Bulk density of powder” is a measurement standard for the relative importance of the interaction between microparticles by comparing the bulk density and tapped density of the powder. Methods for measuring bulk density of powder are known in the art; for example, it can be determined by cylinder measurement, volumetric measurement, and container measurement. Bulk density of the crystalline powder of the compound of formula I according to the present invention is determined as less than 0.7 g/mL, preferably less than 0.6 g/mL, most preferably less than 0.5 g/mL, by cylinder measurement.

[3] = Ratio of dry weight to wet weight (Dry/Wet) of filtered solids; details: wet solids weighed after filtration, before drying
Excerpt: As used herein, the term “Dry/Wet” and “ratio of dry weight to wet weight” can be used interchangeably, both of which refer to the ratio of the weight of a compound without solvent(s) to the weight of the compound with solvent(s). In the present invention, wet weight of crystals is obtained by filtering the crystallized solids until no noticeable droplet outflows and weighing the solids.

[4] = Vacuum-drying at 25° C. with a water system until no organic solvent detected by GC; purity by HPLC; details: for time Needed (for drying): 25° C., vacuum-drying with a water system until no organic solvent detected by GC; for Purity before drying / Purity after drying: HPLC; for Purity before drying: 5 g of solids; for Purity after drying: vacuum-dried at 25° C. with a water system until no organic solvent detected by GC
Excerpt: High performance liquid chromatography (HPLC) is a common method for determining the purity of a compound, wherein a liquid is used as the mobile phase and a high-pressure transfusion system is used for pumping the mobile phase, such as single solvents with different polarities, a mixture of solvents at different proportions, or buffers, into a column packed with a stationary phase. Each component is separated in the column, and then enters into a detector for detection, thereby analyzing a sample. In the present invention, HPLC is used for determining the purity of the compound of formula I and studying the stability of a sample. Conditions of the HPLC method are listed as follows:
Analysis Column: YMC-ODS 250×4.6 mm, 5 μm;
Mobile phase: acetonitrile:phosphate buffer (pH 3.0)=45:70;
Column temperature: 35° C.;
Diluent: aqueous phosphate buffer;
Detection wavelength: 210 nm;
Gas chromatography (GC) used to separate and measure trace impurities in a compound is an accurate, qualitative and quantitative method of analysis. In the present invention, the content of organic solvents in the crystalline powder of the compound of formula I obtained in the present invention is measured by gas chromatography (GC).
5 g of solids were prepared according to the methods of Examples 2-10 and Comparative Examples 1-3 respectively, placed at 25° C., and vacuum-dried together with a water system until no organic solvent was detected through GC. The time for drying was compared, and the purity of the sample was analyzed.

Structure (SMILES)	d10, particle size of the crystalline powder [1] [um]	d50, particle size of the crystalline powder [1] [um]	Bulk density [2] [g/mL]	ratio of dry weight to wet weight (Dry/Wet) [3]	time Needed (for drying) [4] [h]	Purity before drying [4] [%]	Purity after drying [4] [%]
CCCCCOc1ccc(-c2cc(-c3ccc(C(=O)N[C@H]4C[C@@H](O)[C@@H](O)NC(=O)[C@@H]5[C@@H](O)[C@@H](C)CN5C(=O)[C@H]([C@H](O)CC(N)=O)NC(=O)[C@H]([C@H](O)[C@@H](O)c5ccc(O)c(OS(=O)(=O)[O-])c5)NC(=O)[C@@H]5C[C@@H](O)CN5C(=O)[C@H]([C@@H](C)O)NC4=O)cc3)no2)cc1.[Na+] [Example 9] (X1-[Orn(4R-OH,5R-OH)]T[Hyp][hTyr(3S-OH,4S-OH,3'-OSO3H)][Gln(3R-OH)][Pro(3S-OH,4S-Me)]; lactam 1-C)	1.3	20	0.54	0.62	8.5	99.42	99.38
CCCCCOc1ccc(-c2cc(-c3ccc(C(=O)N[C@H]4C[C@@H](O)[C@@H](O)NC(=O)[C@@H]5[C@@H](O)[C@@H](C)CN5C(=O)[C@H]([C@H](O)CC(N)=O)NC(=O)[C@H]([C@H](O)[C@@H](O)c5ccc(O)c(OS(=O)(=O)[O-])c5)NC(=O)[C@@H]5C[C@@H](O)CN5C(=O)[C@H]([C@@H](C)O)NC4=O)cc3)no2)cc1.[Na+] [Example 4] (X1-[Orn(4R-OH,5R-OH)]T[Hyp][hTyr(3S-OH,4S-OH,3'-OSO3H)][Gln(3R-OH)][Pro(3S-OH,4S-Me)]; lactam 1-C)	5.1	50	0.55	0.61	9	99.64	99.64
CCCCCOc1ccc(-c2cc(-c3ccc(C(=O)N[C@H]4C[C@@H](O)[C@@H](O)NC(=O)[C@@H]5[C@@H](O)[C@@H](C)CN5C(=O)[C@H]([C@H](O)CC(N)=O)NC(=O)[C@H]([C@H](O)[C@@H](O)c5ccc(O)c(OS(=O)(=O)[O-])c5)NC(=O)[C@@H]5C[C@@H](O)CN5C(=O)[C@H]([C@@H](C)O)NC4=O)cc3)no2)cc1.[Na+] [Example 3] (X1-[Orn(4R-OH,5R-OH)]T[Hyp][hTyr(3S-OH,4S-OH,3'-OSO3H)][Gln(3R-OH)][Pro(3S-OH,4S-Me)]; lactam 1-C)	3.7	43.1	0.43	0.52	6.5	99.63	99.61
CCCCCOc1ccc(-c2cc(-c3ccc(C(=O)N[C@H]4C[C@@H](O)[C@@H](O)NC(=O)[C@@H]5[C@@H](O)[C@@H](C)CN5C(=O)[C@H]([C@H](O)CC(N)=O)NC(=O)[C@H]([C@H](O)[C@@H](O)c5ccc(O)c(OS(=O)(=O)[O-])c5)NC(=O)[C@@H]5C[C@@H](O)CN5C(=O)[C@H]([C@@H](C)O)NC4=O)cc3)no2)cc1.[Na+] [Example 5] (X1-[Orn(4R-OH,5R-OH)]T[Hyp][hTyr(3S-OH,4S-OH,3'-OSO3H)][Gln(3R-OH)][Pro(3S-OH,4S-Me)]; lactam 1-C)	9	97.7	0.6	0.66	10	99.52	99.47
CCCCCOc1ccc(-c2cc(-c3ccc(C(=O)N[C@H]4C[C@@H](O)[C@@H](O)NC(=O)[C@@H]5[C@@H](O)[C@@H](C)CN5C(=O)[C@H]([C@H](O)CC(N)=O)NC(=O)[C@H]([C@H](O)[C@@H](O)c5ccc(O)c(OS(=O)(=O)[O-])c5)NC(=O)[C@@H]5C[C@@H](O)CN5C(=O)[C@H]([C@@H](C)O)NC4=O)cc3)no2)cc1.[Na+] [Example 7] (X1-[Orn(4R-OH,5R-OH)]T[Hyp][hTyr(3S-OH,4S-OH,3'-OSO3H)][Gln(3R-OH)][Pro(3S-OH,4S-Me)]; lactam 1-C)	1	10	0.6	0.69	9.5	99.65	99.57
CCCCCOc1ccc(-c2cc(-c3ccc(C(=O)N[C@H]4C[C@@H](O)[C@@H](O)NC(=O)[C@@H]5[C@@H](O)[C@@H](C)CN5C(=O)[C@H]([C@H](O)CC(N)=O)NC(=O)[C@H]([C@H](O)[C@@H](O)c5ccc(O)c(OS(=O)(=O)[O-])c5)NC(=O)[C@@H]5C[C@@H](O)CN5C(=O)[C@H]([C@@H](C)O)NC4=O)cc3)no2)cc1.[Na+] [Example 6] (X1-[Orn(4R-OH,5R-OH)]T[Hyp][hTyr(3S-OH,4S-OH,3'-OSO3H)][Gln(3R-OH)][Pro(3S-OH,4S-Me)]; lactam 1-C)	–	48.7	0.49	0.6	8.5	99.61	99.6
CCCCCOc1ccc(-c2cc(-c3ccc(C(=O)N[C@H]4C[C@@H](O)[C@@H](O)NC(=O)[C@@H]5[C@@H](O)[C@@H](C)CN5C(=O)[C@H]([C@H](O)CC(N)=O)NC(=O)[C@H]([C@H](O)[C@@H](O)c5ccc(O)c(OS(=O)(=O)[O-])c5)NC(=O)[C@@H]5C[C@@H](O)CN5C(=O)[C@H]([C@@H](C)O)NC4=O)cc3)no2)cc1.[Na+] [Example 10] (X1-[Orn(4R-OH,5R-OH)]T[Hyp][hTyr(3S-OH,4S-OH,3'-OSO3H)][Gln(3R-OH)][Pro(3S-OH,4S-Me)]; lactam 1-C)	8.3	100	0.56	0.63	9	99.5	99.43
CCCCCOc1ccc(-c2cc(-c3ccc(C(=O)N[C@H]4C[C@@H](O)[C@@H](O)NC(=O)[C@@H]5[C@@H](O)[C@@H](C)CN5C(=O)[C@H]([C@H](O)CC(N)=O)NC(=O)[C@H]([C@H](O)[C@@H](O)c5ccc(O)c(OS(=O)(=O)[O-])c5)NC(=O)[C@@H]5C[C@@H](O)CN5C(=O)[C@H]([C@@H](C)O)NC4=O)cc3)no2)cc1.[Na+] [Example 8] (X1-[Orn(4R-OH,5R-OH)]T[Hyp][hTyr(3S-OH,4S-OH,3'-OSO3H)][Gln(3R-OH)][Pro(3S-OH,4S-Me)]; lactam 1-C)	2.6	18.7	0.38	0.45	6	99.52	99.46
